{"source": "patent US6160008A", "about": "“Pharmaceutical compositions comprising S-alkylisothiouronium derivatives” (priority 1996, dated 2000)", "key": {"[1]": {"tested_on": "arterial blood pressure", "test": "Influence of single intravenous injection on arterial blood pressure, heart rate and respiratory rate in anesthetized cats (Table 1, FIGS. 1-10)", "type": "in vivo", "details": "5 mg/kg i.v.; for Hypertensive activity (increase of SAP): given as \"> SAP by\"", "description": "Experiments were performed on 52 anesthetized (intraperitoneally with 45 mg/kg of sodium pentobarbital) cats of both genders with body mass of 2.8-4.2 kg. Arterial pressure was measured by a mercury pressure gauge; measurements were also performed by ECG. Simultaneously, the respiratory frequency was registered. The hypertensive effect was determined as percent increase relative to the initial level of systolic arterial pressure (SAP). The duration of observation was 1-3 hours; the heart rate (HR) was calculated on the basis of ECG."}, "[2]": {"tested_on": "acute arterial hypotension, caused by the hexamethonium administration", "test": "Acute arterial hypotension caused by hexamethonium (Table 5)", "type": "in vivo, cats", "description": "The influence of S-ethylisothiouronium diethylphosphate on the background of arterial hypotension caused by a known ganglion blocker-hexamethonium has been studied in cats. Hexamethonium was injected intra- venously at a dose of 10 mg/kg. Vagus and schiatic nerve stimulation was carried out by electrical pulsator with the above-threshold rectangular pulse current having a duration of 1 msec, irritation time of 10 sec, and frequency of 20 pulses/sec (peripheral section of the vagus nerve), and frequency of 300 pulses/sec (central end of the schiatic nerve)."}, "[3]": {"tested_on": "increased oxygen pressure", "details": "cited from earlier work"}, "[4]": {"tested_on": "mice exposed to an oxygen pressure of 3 atm", "test": "Survival under oxygen pressure of 3 atm, mice (Table 15)", "type": "in vivo, F1 (CBAx57B1)", "details": "mice, 3 atm, 5 hours", "description": "Animals were exposed to oxygen under increased pressure in a hyperbaric chamber <<Mana-2≤≤ for treatment of infants above 1 year, which was adjusted for the experiments on animals. The hyperbaric chamber design permitted to create excessive pressure up to 3 atm and to observe animal behavior from outside.\nThe experiments were performed on males of F1 (CBAx57B1) mice line and on males of Wistar rat line. Animals were placed in the hyperbaric chamber in plastic boxes and the atmospheric air was replaced by oxygen. The period of compression-decompression was 10 minutes. The exposure of the animals to an oxygen pressure of 3 atm during a period of 2 hours caused only some increase in their motion activity. Further staying of rats and mice in those conditions led to a decrease in the motion activity, to asphyxia with short periods of excitement and cramps. The death of some animals was registered after 2.5-3 hours, 50% after 4 hours, and 75% of mice and 100% of rats were dead after 5 hours.\nWhen the influence of Difetur and Etyron was studied, the animals were exposed to an oxygen pressure of 3 atm during 5 hours if not otherwise specified. Preparations were injected 5-10 minutes before the session."}, "[5]": {"tested_on": "acute arterial hypotension, caused by prazosin", "test": "Acute arterial hypotension caused by prazosin (Table 3)", "type": "in vivo, cats", "details": "prazosin alone 1 mg/kg i.v.", "description": "It was of interest to study the influence of S-ethylisothiouronium diethylphosphate the in case of hypotension caused by the injection of a known α1-adreno blocker, namely prazosin. Prazosin was injected singly intravenously at a dose of 1 mg/kg."}, "[6]": {"tested_on": "α1-adrenoreceptors", "details": "cited from earlier work"}, "[7]": {"details": "listed as S-methylisothiuronium dimethylphosphate"}, "[8]": {"details": "hexamethonium alone 10 mg/kg i.v., 2nd min"}, "[9]": {"details": "listed as S-ethylisothiuronium methylphosphate"}, "[10]": {"details": "listed as S-isopropylisothiuronium isopropylphosphite"}, "[11]": {"details": "listed as S-isopropylisothiuronium metaphosphate"}, "[12]": {"details": "listed as S-isobutylisothiuronium isobutylphosphate"}}, "note": "Entries after “also recorded” stand apart in the source; their conditions may differ.", "data": [{"smiles": "CSC(=N)N", "note": "[S-methylisothiouronium dimethylphosphate]", "values": [{"measurement": "Duration of effect", "setting": "[1]", "result": 1.5, "unit": "h"}, {"measurement": "Hypertensive activity, % (increase relative to the initial level of SAP)", "setting": "[1]", "result": "~30", "unit": "%"}, {"measurement": "Hypertensive activity (increase of SAP)", "setting": "[1]; [7]", "result": 27.5, "unit": "mm Hg"}, {"measurement": "Duration of effect", "setting": "[1]; [7]", "result": 1.5, "unit": "h"}, {"measurement": "Hypertensive activity, % (increase relative to the initial level of SAP)", "setting": "[1]; [7]", "result": 20.8, "unit": "%"}]}, {"smiles": "C[N+](C)(C)CCCCCC[N+](C)(C)C", "note": "[hexamethonium, reference compound]", "values": [{"measurement": "AP after hexonium injection", "setting": "[2]; [8]", "result": "91.0 ± 10.0", "unit": "mm Hg"}, {"measurement": "HF after hexonium injection", "setting": "[2]; [8]", "result": "137.6 ± 13.4", "unit": "per min."}, {"measurement": "AP decrease", "setting": "[2]; hexamethonium alone, 2 minutes", "result": 46, "unit": "%"}]}, {"smiles": "Br.CCSC(=N)N", "note": "[Etyron, S-ethylisothiouronium bromide, reference compound]", "values": [{"measurement": "Protective activity in words", "setting": "[3]", "result": "protective activity under increased oxygen pressure"}, {"measurement": "Number of survived animals", "setting": "[4]; 10 mg/kg", "result": 70, "unit": "%"}, {"measurement": "Number of survived animals", "setting": "[4]; 20 mg/kg", "result": 50, "unit": "%"}]}, {"smiles": "COc1cc2nc(N3CCN(C(=O)c4ccco4)CC3)nc(N)c2cc1OC", "note": "[prazosin, reference compound]", "values": [{"measurement": "AP after prazosin", "setting": "[5]; 5th min", "result": "106.3 ± 2.4", "unit": "mm Hg"}, {"measurement": "HF after prazosin", "setting": "[5]; 5th min", "result": "156.8 ± 9.0", "unit": "per min."}, {"measurement": "Respiratory contraction frequency after prazosin", "setting": "[5]; 5th min", "result": "13.6 ± 2.9", "unit": "min⁻¹"}, {"measurement": "AP decrease", "setting": "[5]; 5th minute", "result": 51, "unit": "mm Hg"}]}, {"smiles": "CNCC(O)c1cccc(O)c1.Cl", "note": "(centres unmarked) [Mezaton, 1-(m-hydroxyphenyl)-2-methylaminoethanol hydrochloride]", "values": [{"measurement": "Pharmacological action in words", "setting": "[6]; in vivo, hydrochloride", "result": "selectively stimulates α1-adrenoreceptors; also recorded: practically does not have cardiostimulating effect"}, {"measurement": "Duration of anti-hypotensive effect", "setting": "[6]; single intravascular injection", "result": "approximately 20 minutes"}]}, {"smiles": "CCSC(=N)N", "note": "[S-ethylisothiouronium metaphosphate]", "values": [{"measurement": "Duration of effect", "setting": "[1]", "result": 1.5, "unit": "h"}, {"measurement": "Hypertensive activity, % (increase relative to the initial level of SAP)", "setting": "[1]", "result": 15, "unit": "%"}, {"measurement": "RR (influence on respiratory rate)", "setting": "[1]", "result": "does not influence RR"}, {"measurement": "Time to achieve maximum effect", "setting": "[1]", "result": 2, "unit": "min"}, {"measurement": "Hypertensive activity (increase of SAP)", "setting": "[1]", "result": 25, "unit": "mm Hg"}, {"measurement": "Hypertensive activity (increase of SAP)", "setting": "[1]; [9]", "result": 25, "unit": "mm Hg"}, {"measurement": "Duration of effect", "setting": "[1]; [9]", "result": "up to 1 hour"}, {"measurement": "Hypertensive activity, % (increase relative to the initial level of SAP)", "setting": "[1]; [9]", "result": 14.8, "unit": "%"}, {"measurement": "Influence on HR", "setting": "[1]; [9]", "result": "Bradycardia"}, {"measurement": "RR (influence on respiratory rate)", "setting": "[1]; [9]", "result": "No influence"}]}, {"smiles": "CC(C)SC(=N)N", "note": "[S-isopropylisothiouronium isopropylphosphite]", "values": [{"measurement": "Duration of effect", "setting": "[1]", "result": "at least 2 hour"}, {"measurement": "Hypertensive activity, % (increase relative to the initial level of SAP)", "setting": "[1]", "result": "~30", "unit": "%"}, {"measurement": "Hypertensive effect in words", "setting": "[1]", "result": "one of the most active substances"}, {"measurement": "Influence on HR", "setting": "[1]", "result": "Transient bradycardia"}, {"measurement": "RR (influence on respiratory rate)", "setting": "[1]", "result": "does not influence RR"}, {"measurement": "Time to achieve maximum effect", "setting": "[1]", "result": "second minute"}, {"measurement": "Hypertensive activity (increase of SAP)", "setting": "[1]; [10]", "result": 40, "unit": "mm Hg"}, {"measurement": "Duration of effect", "setting": "[1]; [10]", "result": 2, "unit": "h"}, {"measurement": "Hypertensive activity, % (increase relative to the initial level of SAP)", "setting": "[1]; [10]", "result": 28.8, "unit": "%"}, {"measurement": "Influence on HR", "setting": "[1]; [10]", "result": "Bradycardia"}, {"measurement": "RR (influence on respiratory rate)", "setting": "[1]; [10]", "result": "No influence"}, {"measurement": "Time to achieve maximum effect", "setting": "[1]; [10]", "result": 2, "unit": "min"}]}, {"smiles": "CCCCSC(=N)N", "note": "[S-butylisothiouronium dibutylphosphate, S-butylisothiouronium di-butylphosphate]", "values": [{"measurement": "Duration of effect", "setting": "[1]", "result": 1, "unit": "h"}, {"measurement": "Hypertensive activity, % (increase relative to the initial level of SAP)", "setting": "[1]", "result": 5.6, "unit": "%"}, {"measurement": "Hypertensive effect in words", "setting": "[1]", "result": "slightly increases arterial blood pressure"}, {"measurement": "RR (influence on respiratory rate)", "setting": "[1]", "result": "No influence"}, {"measurement": "Time to achieve maximum effect", "setting": "[1]", "result": 30, "unit": "min"}, {"measurement": "Hypertensive activity (increase of SAP)", "setting": "[1]", "result": 7, "unit": "mm Hg"}, {"measurement": "Duration of effect", "setting": "[1]; listed as S-butylisothiuronium dibutylphosphate", "result": "up to 1 hour"}]}, {"smiles": "CC(C)SC(=N)N", "note": "[S-isopropylisothiouronium metaphosphate]", "values": [{"measurement": "Duration of effect", "setting": "[1]", "result": "≥ 2", "unit": "h"}, {"measurement": "Hypertensive effect in words", "setting": "[1]", "result": "slowly increases SAP"}, {"measurement": "RR (influence on respiratory rate)", "setting": "[1]", "result": "does not influence RR"}, {"measurement": "Time to achieve maximum effect", "setting": "[1]", "result": 15, "unit": "min"}, {"measurement": "Hypertensive activity (increase of SAP)", "setting": "[1]; [11]", "result": 27, "unit": "mm Hg"}, {"measurement": "Duration of effect", "setting": "[1]; [11]", "result": 2, "unit": "h"}, {"measurement": "Hypertensive activity, % (increase relative to the initial level of SAP)", "setting": "[1]; [11]", "result": 20.3, "unit": "%"}, {"measurement": "Influence on HR", "setting": "[1]; [11]", "result": "Bradycardia"}, {"measurement": "RR (influence on respiratory rate)", "setting": "[1]; [11]", "result": "Increases"}, {"measurement": "Time to achieve maximum effect", "setting": "[1]; [11]", "result": 15, "unit": "min"}]}, {"smiles": "CC(C)CSC(=N)N", "note": "[S-isobutylisothiouronium isobutylphosphite]", "values": [{"measurement": "Duration of effect", "setting": "[1]", "result": "about 2 hour"}, {"measurement": "Hypertensive activity, % (increase relative to the initial level of SAP)", "setting": "[1]", "result": 14.8, "unit": "%"}, {"measurement": "Hypertensive effect in words", "setting": "[1]", "result": "moderate hypertensive effect"}, {"measurement": "Influence on HR", "setting": "[1]", "result": "increasing HR"}, {"measurement": "RR (influence on respiratory rate)", "setting": "[1]", "result": "increasing HR and RR"}, {"measurement": "Time to achieve maximum effect", "setting": "[1]", "result": 2, "unit": "min"}, {"measurement": "Hypertensive activity (increase of SAP)", "setting": "[1]", "result": 22.6, "unit": "mm Hg"}, {"measurement": "Duration of effect", "setting": "[1]; [12]", "result": 2, "unit": "h"}, {"measurement": "RR (influence on respiratory rate)", "setting": "[1]; [12]", "result": "Increases"}]}]}
